This note sets out measurements from patent US9073940B2, “Tricyclic pyrazol amine derivatives” (MERCK SERONO SA, priority 2009, dated 2015).

Counter-ions that a name gives are not always drawn.

The test system of test [1] is AKT phosphorylation (p-AKT Ser 473) in Ramos B-lymphocyte cell line. Nature of the test: Mechanistic on-target cell assay: flow cytometry of AKT phosphorylation after anti-human IGM stimulation. The test is classed as cell-based. On the procedure: Mechanistic-On Target Cell Assay
The reaction was stopped by fixing the cells with Paraformaldehyde 4% (final) for 10 minutes at room temperature. Cells were washed once with Phosphate Buffer Saline (PBS), permabilized in PBS-Triton X-100 0.2% for 15 minutes at room temperature washed twice with PBS and once with PBS-4% serum. […] Cells were washed twice in PBS and resuspended in PBS. The cell suspension was passed on a FC500 flow cytometer (Beckman Coulter), gating on the IGM positive cells and measuring the AKT phosphorylation.
For orientation: A flow cytometer gives signals particle by particle.

For test [2], the system named is 4 PI3K isoforms (Human recombinant GST-PI3K). Nature of the test: PI3K scintillation proximity assay, best IC50 obtained with the four isoforms (alpha, beta, delta, gamma). The test is classed as biochemical. The following applies: for IC50: best IC50 obtained with the four isoforms of PI3K, read-out: Best potency measured on the 4 PI3K isoforms; for Best potency measured on the 4 PI3K isoforms, % inh @20 μM: inhibition at 20 μM. Background: Scintillation proximity formats need no separation of bound from free tracer.

`CCCn1nc(C(=O)N2CCOCC2)c2c1-c1ccccc1S(=O)(=O)C2` [Example 39, 3-(morpholin-4-ylcarbonyl)-1-propyl-1,4-dihydrothiochromeno[4,3-c]pyrazole 5,5-dioxide]: the figures for the IC50 in test [1] and in test [2] were 388 nM and 641 nM, respectively.

For `O=C(c1nn([C@@H]2CCCN(C3CCOCC3)CC2)c2c1CS(=O)(=O)c1ccccc1-2)N1CCOCC1` (single isomer, unassigned) [Example 400], the IC50 turned out to be 888 nM in test [1] and 104 nM in test [2]. On to `O=C(c1nn(CC2CCNCC2)c2c1CS(=O)(=O)c1ccccc1-2)N1CCOCC1` [Example 56, 3-(morpholin-4-ylcarbonyl)-1-(piperidin-4-ylmethyl)-1,4-dihydrothiochromeno[4,3-c]pyrazole 5,5-dioxide], for which the figures for the IC50 in test [1] and in test [2] were 8150 nM and 531 nM, respectively. Regarding `Nc1ccc2c(c1)-c1c(c(C(=O)N3CCOCC3)nn1-c1ccccc1)CS2(=O)=O` [Example 65, 3-(Morpholin-4-ylcarbonyl)-1-phenyl-1,4-dihydrothiochromeno[4,3-c]pyrazol-8-amine 5,5-dioxide], the IC50 is 251 nM in test [1] and 368 nM in test [2].

Regarding `O=C(c1nn(CCO)c2c1CS(=O)(=O)c1ccccc1-2)N1CCOCC1` [Example 46, 2-[3-(morpholin-4-ylcarbonyl)-5,5-dioxidothiochromeno[4,3-c]pyrazol-1(4H)-yl]ethanol], the IC50 in test [1] was 680 nM; in test [2] it was 661 nM. Take `O=C(c1nn([C@H]2CCN(C3CCOCC3)C2)c2c1CS(=O)(=O)c1c(F)cccc1-2)N1CCOCC1` (single isomer, unassigned) [Example 355, 6-fluoro-3-(morpholin-4-ylcarbonyl)-1-[1-(tetrahydro-2H-pyran-4-yl)pyrrolidin-3-yl]-1,4-dihydrothiochromeno[4,3-c]pyrazole 5,5-dioxide hydrochloride salt]: the figures for the IC50 in test [1] and in test [2] were 94 nM and 52 nM, respectively. In the case of `O=C(c1nn(-c2ccccc2)c2c1CS(=O)(=O)c1ccccc1-2)N1CCOCC1` [Example 33, 3-(morpholin-4-ylcarbonyl)-1-phenyl-1,4-dihydrothiochromeno[4,3-c]pyrazole 5,5-dioxide], the IC50 in test [1] came to 706 nM; in test [2], 244 nM. The matching figures for `CCn1nc(C(=O)N2CCOCC2)c2c1-c1ccccc1S(=O)(=O)C2` [Example 37, 1-ethyl-3-(morpholin-4-ylcarbonyl)-1,4-dihydrothiochromeno[4,3-c]pyrazole 5,5-dioxide]: 493 nM and 601 nM.

Turning to “3-(morpholin-4-ylcarbonyl)-1-[1-(2-morpholin-4-ylethyl)piperidin-3-yl]-1,4-dihydrothiochromeno[4,3-c]pyrazole 5,5-dioxide [Example 345]”, the IC50 in test [1] was found to be 68 nM; in test [2], 16 nM.

For `COCCN1CCC[C@H](n2nc(C(=O)N3CCOCC3)c3c2-c2ccccc2S(=O)(=O)C3)C1` (single isomer, unassigned) [Example 346, 1-[1-(2-methoxyethyl)piperidin-3-yl]-3-(morpholin-4-ylcarbonyl)-1,4-dihydrothiochromeno[4,3-c]pyrazole 5,5-dioxide], the IC50 in test [1] turned out to be 128 nM; in test [2] it was 40 nM.

`O=C(c1nn(-c2ccc(CN3CCOCC3)cc2)c2c1CS(=O)(=O)c1ccccc1-2)N1CCOCC1` [Example 137] had an IC50 in test [1] of 300 nM.

For the molecule `O=C(c1nn([C@H]2CCCN(CCN3CCOCC3)C2)c2c1CS(=O)(=O)c1c(F)cccc1-2)N1CCOCC1` (single isomer, unassigned) [Example 350, 6-fluoro-3-(morpholin-4-ylcarbonyl)-1-[1-(2-morpholin-4-ylethyl)piperidin-3-yl]-1,4-dihydrothiochromeno[4,3-c]pyrazole 5,5-dioxide hydrochloride salt], the IC50 in test [1] was 40 nM; in test [2] it was 16 nM. On the same counts, the results for `Cc1ccc(-n2nc(C(=O)N3CCOCC3)c3c2-c2ccccc2S(=O)(=O)C3)cc1` [Example 7, 1-(4-methylphenyl)-3-(morpholin-4-ylcarbonyl)-1,4-dihydrothiochromeno[4,3-c]pyrazole 5,5-dioxide] are 976 nM and 690 nM. With `CS(=O)(=O)NCc1ccc(-n2nc(C(=O)N3CCOCC3)c3c2-c2ccccc2S(=O)(=O)C3)cc1` [Example 66, N-{4-[3-(Morpholin-4-ylcarbonyl)-5,5-dioxidothiochromeno[4,3-c]pyrazol-1(4H)-yl]benzyl}methanesulfonamide], the IC50 in test [1] worked out at 942 nM; in test [2], 421 nM. Take `CN(C)Cc1ccc(-n2nc(C(=O)N3CCOCC3)c3c2-c2ccccc2S(=O)(=O)C3)cc1` [Example 226, N,N-Dimethyl-1-{4-[3-(morpholin-4-ylcarbonyl)-5,5-dioxidothiochromeno[4,3-c]pyrazol-1(4H)-yl]phenyl}methanamine]: the IC50 in test [1] stood at 492 nM; in test [2], 43 nM. As for `O=C(c1nn(C2CCCCC2)c2c1CS(=O)(=O)c1ncccc1-2)N1CCOCC1` [Example 79, 3-(Morpholin-4-ylcarbonyl)-1-cyclohexyl-1,4-dihydropyrazolo[3′,4′:4,5]thio pyrano[2,3-b]pyridine 5,5-dioxide], the IC50 worked out at 492 nM in test [1] and 437 nM in test [2]. The matching figures for `COc1ccc(Cn2nc(C(=O)N3CCOCC3)c3c2-c2ccccc2S(=O)(=O)C3)cc1` [Example 38, 1-(4-methoxybenzyl)-3-(morpholin-4-ylcarbonyl)-1,4-dihydrothiochromeno[4,3-c]pyrazole 5,5-dioxide]: 942 nM and 459 nM.

As to `CC(C)(C)OC(=O)N1CCC(Cn2nc(C(=O)N3CCOCC3)c3c2-c2ccccc2S(=O)(=O)C3)CC1` [Example 43, tert-butyl 4-{[3-(morpholin-4-ylcarbonyl)-5,5-dioxidothiochromeno[4,3-c]pyrazol-1(4H)-yl]methyl}piperidine-1-carboxylate], the IC50 in test [1] worked out at 534 nM. On to `O=C(c1nn([C@H]2CCCN(CCF)C2)c2c1CS(=O)(=O)c1ncccc1-2)N1CCOCC1` [Example 380], for which the IC50 in test [1] was determined as 320 nM. As for `COc1ccc2c(c1)S(=O)(=O)Cc1c(C(=O)N3CCOCC3)nn([C@H]3CCCN(C4CCCOC4)C3)c1-2` (stereo in doubt) [Example 389, 7-methoxy-3-(morpholin-4-ylcarbonyl)-1-[1-(tetrahydro-2H-pyran-3-yl)piperidin-3-yl]-1,4-dihydrothiochromeno[4,3-c]pyrazole 5,5-dioxide], in test [2], the IC50 was determined as 24 nM.

In the case of `CC(C)(C)OC(=O)N1CCC(n2nc(C(=O)N3CCOCC3)c3c2-c2ccccc2S(=O)(=O)C3)C1` (centres unmarked) [Example 254], the IC50 in test [2] amounted to 1200 nM. Consider `CN(C)Cc1cccc2c1S(=O)(=O)Cc1c(C(=O)N3CCOCC3)nn(-c3ccccc3)c1-2` [Example 320], for which the “Best potency measured on the 4 PI3K isoforms, % inh @20 μM” value in test [2] was found to be 32% inh @20 μM. For the molecule `COC1CN(Cc2ccc(-n3nc(C(=O)N4CCOCC4)c4c3-c3ccccc3S(=O)(=O)C4)cc2)C1` [Example 272, 1-{4-[(3-Methoxyazetidin-1-yl)methyl]phenyl}-3-(morpholin-4-ylcarbonyl)-1,4-dihydrothiochromeno[4,3-c]pyrazole 5,5-dioxide], the IC50 in test [2] was 165 nM. `COCCn1nc(C(=O)N2CCOCC2)c2c1-c1ccccc1S(=O)(=O)C2` [Example 53, 1-(2-methoxyethyl)-3-(morpholin-4-ylcarbonyl)-1,4-dihydrothiochromeno[4,3-c]pyrazole 5,5-dioxide]: the IC50 in test [2] was determined as 1290 nM. For `O=C(c1ccc(-n2nc(C(=O)N3CCOCC3)c3c2-c2ccccc2S(=O)(=O)C3)cc1)N1CCCCC1` [Example 151, 3-(Morpholin-4-ylcarbonyl)-1-[4-(piperidin-1-ylcarbonyl)phenyl]-1,4-dihydrothiochromeno[4,3-c]pyrazole 5,5-dioxide], the IC50 in test [2] turned out to be 238 nM. Take `O=C(c1cccc(-n2nc(C(=O)N3CCOCC3)c3c2-c2ccccc2S(=O)(=O)C3)c1)N1CCOCC1` [Example 61, 3-(Morpholin-4-ylcarbonyl)-1-[3-(morpholin-4-ylcarbonyl)phenyl]-1,4-dihydrothiochromeno[4,3-c]pyrazole 5,5-dioxide]: the IC50 in test [2] turned out to be 73 nM.

Turning to `CC1COCCN1C(=O)c1nn(-c2ccccc2)c2c1CS(=O)(=O)c1ccccc1-2` (centres unmarked) [Example 338, 3-[(3-Methylmorpholin-4-yl)carbonyl]-1-phenyl-1,4-dihydrothiochromeno[4,3-c]pyrazole 5,5-dioxide], in test [2], the IC50 was 13900 nM. For `CS(=O)(=O)N1CCC(n2nc(C(=O)N3CCOCC3)c3c2-c2ccccc2S(=O)(=O)C3)CC1` [Example 123, 1-[1-(Methylsulfonyl)piperidin-4-yl]-3-(morpholin-4-ylcarbonyl)-1,4-dihydrothiochromeno[4,3-c]pyrazole 5,5-dioxide], in test [2], the IC50 was found to be 2100 nM.

For `O=C(c1nn(-c2cccc(-c3nn[nH]n3)c2)c2c1CS(=O)(=O)c1ccccc1-2)N1CCOCC1` [Example 325], the “Best potency measured on the 4 PI3K isoforms, % inh @20 μM” value in test [2] is given as 19% inh @20 μM. In the case of `O=C(c1nn(C2CCCN(c3cccnc3)C2)c2c1CS(=O)(=O)c1ccccc1-2)N1CCOCC1` (single isomer, unassigned) [Example 484, 3-(morpholin-4-ylcarbonyl)-1-[1-pyridin-3-ylpiperidin-3-yl]-1,4-dihydrothiochromeno[4,3-c]pyrazole 5,5-dioxide], the IC50 in test [2] was found to be 48 nM. On to `COCCN1CCC(Cn2nc(C(=O)N3CCOCC3)c3c2-c2ccccc2S(=O)(=O)C3)CC1` [Example 190, 1-{[1-(2-Methoxyethyl)piperidin-4-yl]methyl}-3-(morpholin-4-ylcarbonyl)-1,4-dihydrothiochromeno[4,3-c]pyrazole 5,5-dioxide], for which the IC50 in test [2] worked out at 681 nM.
